Results: BigSolDB 2.1

CNc1nc(C)nc(OC)n1
solubility (mole fraction)
Settings	278.15 K	283.15 K	288.15 K	293.15 K	298.15 K	303.15 K	308.15 K	313.15 K	318.15 K	323.15 K
in DMF	0.199	0.221	0.245	0.269	0.298	0.324	0.357	0.386	0.416	0.456
in ethanol	0.0496	0.057	0.0655	0.0737	0.0818	0.0914	0.101	0.111	0.123	0.136
in ethylene glycol	0.0208	0.0236	0.0273	0.0309	0.0349	0.039	0.0437	0.0483	0.0534	0.0597
in methanol	0.0666	0.0766	0.0874	0.0983	0.11	0.123	0.138	0.152	0.168	0.185
in water	2.58e-06	3.05e-06	3.53e-06	4.12e-06	4.73e-06	5.33e-06	5.99e-06	6.71e-06	7.57e-06	8.49e-06
